Here are results for ten compounds from patent publication US20230391781A1, “MALT1 MODULATORS AND USES THEREOF” (Rheos Medicines, Inc., priority 2020, published 2023).

≈ marks a conversion by molar mass, not a printed value.

The target of one series is full length MALT1 (Homo sapiens (Human), UniProt Q9UDY8). Description: MALT1 Biochemical Assay. Conditions: 15 nM enzyme, 30 μM peptide substrate Ac-Leu-Arg-Ser-Arg-Rh110-dPro, 30 min pre-incubation, 60 min reaction; mean value if tested more than once. In short, it runs like this: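 Full-length human MALT1 was pre-incubated with compound for 30 min, then cleaved a fluorogenic peptide for 60 min in 50 mM Hepes pH 7.5 with 0.8 M sodium citrate and 1 mM DTT. The reaction was quenched with 10 mM iodoacetate and fluorescence was read at 485/520 nm. IC50 came from four-parameter logistic fits of percent inhibition.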

Series [1] has as its system IL-2 in Jurkat (ATCC, clone E6.1) cells stimulated with anti-CD3/28/2. Description: Jurkat IL-2 Assay. Conditions: Homo sapiens; IL-2 inhibition, Jurkat cells, 30 min compound then anti-CD3/28/2 stimulation for 24 hours; mean value if tested more than once; read-out: IC50. It counts as cell-based. In short, it runs like this:
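Jurkat E6.1 T cells in RPMI/10% FBS (below passage 25) were preincubated with a compound dose-response for 30 min, then stimulated with soluble anti-CD3/28/2 for 24 h. IL-2 in the supernatant was measured by MSD immunoassay and viability by CellTiter-Glo luminescence. IC50 came from a 4-parameter fit, reported as ranges, with the mean used where tested repeatedly.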

Series [2] in a line: High Throughput Dialysis (HTD) Human Plasma Protein Binding Assay. The following applies: pooled human plasma, pH 7.4, equilibrium dialysis, 37° C., read-out: Human PPB (% Unbound). It counts as in vitro ADME. As for the experimental part: Human plasma protein binding of various compounds of formula (I) were evaluated using the equilibrium dialysis method described herein.
The dialysis membrane strips (HTD % a/b, catalog number 1101, HTDialysis LLC, Gales Ferry, CT, USA) were soaked in ultra-pure water at room temperature for approximately 1 hour. Each membrane strip containing 2 membranes was separated and soaked in 20:80 ethanol/water (v/v) for approximately 20 minutes, after which they were ready for use or were stored in the solution at 2-8° C. for up to a month. Prior to the experiment, the membrane was rinsed three times and soaked for 20 minutes in ultra-pure water.
On the day of experiment, the human plasma (BiolVT, catalog number […], sodium heparin or EDTA-K2 anticoagulant, multiple individuals pooled) was thawed by running under cold tap water and centrifuged at 3220 rpm for 5 minutes to remove any clots. The pH value of the resulting plasma was confirmed to be 7.0-8.0.
The test compounds and warfarin control (Stru Chem, catalog number SC-16139) were dissolved in dimethyl sulfoxide (DMSO) to obtain 10 mM stock solutions. DMSO working solutions were prepared at 400 μM. To prepare the loading matrix, the compound working solutions (5 μL) were added in a 1:200 ratio to blank human plasma (995 μL) and mixed thoroughly.
The time zero (T0) samples to be used for recovery determination were prepared as follows: 50 μL aliquots of loading matrix were transferred in triplicate to the sample collection plate. The samples were immediately matched with opposite blank buffer (basic solution (14.2 g/L Na2HPO4 and 8.77 g/L NaCl in deionized water) titrated with acidic solution (15.6 g/L NaH2PO4·2H2O and 8.77 g/L NaCl in deionized water) to pH 7.4±0.1) to obtain a final volume of 100 μL of 1:1 matrix/dialysis buffer (v/v) in each well. 500 μL stop solution (200 ng/mL tolbutamide and 200 ng/mL labetalol in acetonitrile) were added to these TO samples. They were then stored at 2-8° C. for further processing along with other post-dialysis samples.
To load the dialysis device (96-well equilibrium dialysis plate, model 96b, catalog number 1006. HTDialysis LLC, Gales Ferry, CT, USA), an aliquot of 150 μL of the loading matrix was transferred to the donor side of each dialysis well in triplicate, and 150 μL of the dialysis buffer was loaded to the receiver side of the well. The dialysis plate was placed in a humidified incubator at 37° C. with 5% CO2 on a shaking platform that rotated slowly (about 100 rpm) for 4 hours.
At the end of the dialysis, aliquots of 50 μL of the samples were taken from both the buffer side and the matrix side of the dialysis device. These samples were transferred into new 96-well plates (polypropylene, 2.2 mL/well, catalog number DWP-22-96-SQ-U-C-L. Apricot). Each sample was mixed with an equal volume of opposite blank matrix (buffer or matrix) to reach a final volume of 100 μL of 1:1 matrix/dialysis buffer (v/v) in each well. All samples were further processed by adding 500 μL of stop solution containing internal standards. The mixture was vortexed and centrifuged at 4000 rpm for about 20 minutes. An aliquot of 100 μL of supernatant of all the samples was then removed for LC-MS/MS analysis. Test compound concentrations in matrix and buffer samples were expressed as peak area ratios (PAR) of analyte/internal standard (no standard curve).
The single blank samples were prepared by transferring 50 μL of blank matrix to a 96 well plate (polypropylene. 2.2 mL/well, catalog number DWP-22-96-SQ-U-C-L, Apricot) and adding 50 μL of blank PBS buffer to each well. The blank plasma must match the species of plasma used in the plasma side of the well. Then the matrix-matched samples were further processed by adding 500 μL of stop solution containing internal standards, following the same sample processing method as the dialysis samples. […]

A short description of series [3]: Thermodynamic Solubility (Ts) Assay in Fasted State Simulated Intestinal Fluid (FaSSIF). It is filed as physicochemical. The following applies: thermodynamic from solid, FaSSIF pH 6.5, shake flask, 25° C., HPLC-UV. As to the method:
The solubilities of various compounds of formula (I) were determined using a thermodynamic solubility assay. The thermodynamic solubility assay employed the shake flask method followed by HPLC-UV analysis. The following stepwise procedure was followed:
Samples of no less than 2.0 mg were weighed into the lower chambers of Whatman mini-uniprep vials (catalog number UN203NPUORG) and 450 μL of FaSSIF media (0.056% (w/v) lecithin, 0.161% (w/v) sodium taurocholate, 0.39% (w/v) monobasic potassium phosphate, 0.77% (w/v) potassium chloride, deionized H2O, pH 6.5) was added into each vial.
After the buffer was added, the filter pistons of the mini-uniprep vials were placed to the position of the liquid level to ensure the full contact of buffer and compound with the filter during the incubation.
The samples were then vortexed for 2 minutes, after which they were incubated at 25° C. with shaking (880 rpm) for 24 hours.
The samples were then centrifuged at 4000 rpm (20° C.) for 10 min.
The miniunipreps were then compressed to prepare filtrates, and the test concentration of the compound in the filtrate was determined using HPLC-UV (Waters XBridge C18, 4.6*100 mm column; mobile phase A: 0.1% TFA in H2O; mobile phase B: 0.1% TFA in acetonitrile). At least 5 UV standard solutions (e.g. amiodarone hydrochloride, carbamazepine, dexamethasone) were injected into the HPLC from low to high concentration subsequently followed by testing of the thermodynamic solubility supernatants in duplicate. The solubilities of the tested compounds are given in μg/mL.

Sequence of full length MALT1 (Q9UDY8 whole entry): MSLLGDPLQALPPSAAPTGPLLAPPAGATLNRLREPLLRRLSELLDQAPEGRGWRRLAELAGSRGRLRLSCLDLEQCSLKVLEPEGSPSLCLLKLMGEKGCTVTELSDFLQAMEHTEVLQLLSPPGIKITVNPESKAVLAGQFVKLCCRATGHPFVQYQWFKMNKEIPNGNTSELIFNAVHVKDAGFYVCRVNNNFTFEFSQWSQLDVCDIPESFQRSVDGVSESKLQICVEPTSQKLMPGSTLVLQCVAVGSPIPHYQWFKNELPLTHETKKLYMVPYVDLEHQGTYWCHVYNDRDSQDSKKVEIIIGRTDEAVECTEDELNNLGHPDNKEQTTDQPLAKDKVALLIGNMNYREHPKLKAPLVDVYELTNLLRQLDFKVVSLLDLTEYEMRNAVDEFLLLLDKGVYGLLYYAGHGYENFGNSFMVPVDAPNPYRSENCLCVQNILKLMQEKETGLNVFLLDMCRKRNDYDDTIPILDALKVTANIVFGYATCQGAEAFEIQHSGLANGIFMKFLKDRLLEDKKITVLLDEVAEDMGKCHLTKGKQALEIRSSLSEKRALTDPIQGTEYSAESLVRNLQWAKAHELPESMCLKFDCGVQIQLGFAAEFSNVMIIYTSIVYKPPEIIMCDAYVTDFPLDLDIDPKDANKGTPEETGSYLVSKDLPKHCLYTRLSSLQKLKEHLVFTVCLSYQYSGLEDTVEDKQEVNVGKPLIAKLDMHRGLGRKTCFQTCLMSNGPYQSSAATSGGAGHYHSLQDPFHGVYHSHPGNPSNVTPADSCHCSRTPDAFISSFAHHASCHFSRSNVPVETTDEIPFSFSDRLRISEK

`CO[C@@H](C)c1c(Nc2ccc([C@H](N(C)C(=O)C3CCS(=O)(=O)CC3)C(F)(F)F)cc2)cnc2nc(Cl)nn12` [Compound 1.1, N-[(1S)-1-[4-({2-chloro-7-[(1S)-1-methoxyethyl]-[1,2,4]triazolo[1,5-a]pyrimidin-6-yl}amino)phenyl]-2,2,2-trifluoroethyl]-N-methyl-1,1-dioxo-1λ^6-thiane-4-carboxamide]: the IC50 against full length MALT1 was < 100 nM; in series [1], 100 to 1000 nM. Moreover, the fraction unbound at 4 h, 2 µM in series [2] was > 0.2. The solubility at 24 h in series [3] is 250 to 1750 µg/mL (≈ 435 to 3040 µM).
In the same order, the values of `CO[C@@H](C)c1c(Nc2ccc([C@H](N(C)C(=O)C3CCC(F)(F)CC3)C(F)(F)F)cc2)cnc2nc(Cl)nn12` [Compound 1.8, N-[(1S)-1-[4-({2-chloro-7-[(1S)-1-methoxyethyl]-[1,2,4]triazolo[1,5-a]pyrimidin-6-yl}amino)phenyl]-2,2,2-trifluoroethyl]-4,4-difluoro-N-methylcyclohexane-1-carboxamide] are 100 to 1000 nM, 100 to 1000 nM, < 0.08 and < 250 µg/mL.
For the compound `CO[C@@H](C)c1c(Nc2ccc([C@H](N(C)C(=O)C3CN(C(C)=O)C3)C(F)(F)F)cc2)cnc2nc(Cl)nn12` [Compound 1.15, 1-acetyl-N-[(1S)-1-[4-({2-chloro-7-[(1S)-1-methoxyethyl]-[1,2,4]triazolo[1,5-a]pyrimidin-6-yl}amino)phenyl]-2,2,2-trifluoroethyl]-N-methylazetidine-3-carboxamide], the 50% inhibitory concentration (IC50) (on full length MALT1; in series [1]) was 100 to 1000 nM in each case. The fraction unbound at 4 h, 2 µM in series [2] is > 0.2. The solubility at 24 h in series [3] was > 1750 µg/mL.
Consider `CC(C)c1c(Nc2ccc([C@H](N(C)C(=O)C3CCS(=O)(=O)CC3)C(F)(F)F)cc2)cnc2nc(Cl)nn12` [Compound 1.18, N-[(1S)-1-(4-{[2-chloro-7-(propan-2-yl)-[1,2,4]triazolo[1,5-a]pyrimidin-6-yl]amino}phenyl)-2,2,2-trifluoroethyl]-N-methyl-1,1-dioxo-1λ^6-thiane-4-carboxamide], for which the IC50 (on full length MALT1; in series [1]) was < 100 nM each time. Moreover, the fraction unbound at 4 h, 2 µM in series [2] is < 0.08. For the same compound, the solubility at 24 h in series [3] was < 250 µg/mL.
For the compound `CC(=O)N1CCC(C(=O)N(C)[C@@H](c2ccc(Nc3cnc4nc(Cl)nn4c3C(C)C)cc2)C(F)(F)F)CC1` [Compound 1.19, 1-acetyl-N-[(1S)-1-(4-{[2-chloro-7-(propan-2-yl)-[1,2,4]triazolo[1,5-a]pyrimidin-6-yl]amino}phenyl)-2,2,2-trifluoroethyl]-N-methylpiperidine-4-carboxamide], the IC50 (at full length MALT1; in series [1]) was < 100 nM each time. In addition, the fraction unbound at 4 h, 2 µM in series [2] was < 0.08. Further, the solubility at 24 h in series [3] was < 250 µg/mL.
As to `CO[C@@H](C)c1c(Nc2ccc([C@H](N(C)C(=O)C3CCN(C(C)=O)CC3)C(F)(F)F)cc2)cnc2nc(Cl)nn12` [Compound 3.1, 1-acetyl-N—((S)-1-(4-((2-chloro-7-((S)-1-methoxyethyl)-[1,2,4]triazolo[1,5-a]pyrimidin-6-yl)amino)phenyl)-2,2,2-trifluoroethyl)-N-methylpiperidine-4-carboxamide], the half-inhibitory concentration (IC50) was < 100 nM against full length MALT1 and 100 to 1000 nM in series [1]. In addition, the fraction unbound at 4 h, 2 µM in series [2] is > 0.2. For the same compound, in series [3], the solubility at 24 h is 250 to 1750 µg/mL (≈ 440 to 3080 µM).
In the same order, the values of `CO[C@@H](C)c1c(Nc2ccc([C@H](N(C)C(=O)C3CCN(S(C)(=O)=O)CC3)C(F)(F)F)cc2)cnc2nc(Cl)nn12` [Compound 3.4, N-[(1S)-1-[4-({2-chloro-7-[(1S)-1-methoxyethyl]-[1,2,4]triazolo[1,5-a]pyrimidin-6-yl}amino)phenyl]-2,2,2-trifluoroethyl]-1-methanesulfonyl-N-methylpiperidine-4-carboxamide] are < 100 nM, 100 to 1000 nM, < 0.08 and < 250 µg/mL.
For `CO[C@@H](C)c1c(Nc2ccc([C@H](N(C)C(=O)C3CCN(S(C)(=O)=O)C3)C(F)(F)F)cc2)cnc2nc(Cl)nn12` (stereo partly drawn) [Compound 3.10, N-[(1S)-1-[4-({2-chloro-7-[(1S)-1-methoxyethyl]-[1,2,4]triazolo[1,5-a]pyrimidin-6-yl}amino)phenyl]-2,2,2-trifluoroethyl]-1-methanesulfonyl-N-methylpyrrolidine-3-carboxamide], the concentration for half-maximal inhibition (IC50) (against full length MALT1; in series [1]) was 100 to 1000 nM throughout. The fraction unbound at 4 h, 2 µM in series [2] fell in the range of 0.08 to 0.2.
Regarding `CO[C@@H](C)c1c(Nc2ccc([C@H](N(C)C(=O)C3CCN(C(=O)C4CC4)CC3)C(F)(F)F)cc2)cnc2nc(Cl)nn12` [Compound 4.1, N—((S)-1-(4-((2-chloro-7-((S)-1-methoxyethyl)-[1,2,4]triazolo[1,5-a]pyrimidin-6-yl)amino)phenyl)-2,2,2-trifluoroethyl)-1-(cyclopropanecarbonyl)-N-methylpiperidine-4-carboxamide], the IC50 at full length MALT1 is < 100 nM; in series [1] it was 100 to 1000 nM. In series [2], the fraction unbound at 4 h, 2 µM lay in the range of 0.08 to 0.2. In addition, in series [3], the solubility at 24 h was < 250 µg/mL.
Take `CO[C@@H](C)c1c(Nc2ccc([C@H](N(C)C(=O)[C@H]3CC[C@H](C(N)=O)CC3)C(F)(F)F)cc2)cnc2nc(Cl)nn12` [Compound 8.1, (1r,4S)—N1-((S)-1-(4-((2-chloro-7-((S)-1-methoxyethyl)-[1,2,4]triazolo[1,5-a]pyrimidin-6-yl)amino)phenyl)-2,2,2-trifluoroethyl)-N1-methylcyclohexane-1,4-dicarboxamide]: the figures for the IC50 (against full length MALT1; in series [1]) were < 100 nM and 100 to 1000 nM, respectively. In series [2], the fraction unbound at 4 h, 2 µM lay within 0.08 to 0.2.
